What was measured:
[1] = target: Sodium-dependent dopamine transporter (Rattus norvegicus, UniProt P23977)
[2] = target: Nitric oxide synthase, brain (Rattus norvegicus, UniProt P29476)
[3] = target: Alpha-2C adrenergic receptor (Rattus norvegicus, UniProt P22086)
[4] = target: Corticotropin releasing factor receptor (Rattus norvegicus) (UniProt P35353)
[5] = target: Norepinephrine transporter (Rattus norvegicus, UniProt Q9JIA2)
[6] = target: Small conductance calcium-activated potassium channel protein 1 (Rattus norvegicus, UniProt P70606)
[7] = target: Vasopressin V1a receptor (Rattus norvegicus) (UniProt P30560)
[8] = target: Type-1 angiotensin II receptor A (Rattus norvegicus, UniProt P25095)
[9] = target: Muscarinic acetylcholine receptor M2 (Rattus norvegicus, UniProt P10980)
[10] = target: B2 bradykinin receptor (Rattus norvegicus, UniProt P25023)
[11] = target: Oxytocin receptor (Rattus norvegicus, UniProt P70536)
[12] = target: Alpha-1A adrenergic receptor (Rattus norvegicus, UniProt P43140)
[13] = target: Substance-P receptor (Rattus norvegicus, UniProt P14600)
[14] = target: Beta-2 adrenergic receptor (Rattus norvegicus, UniProt P10608)
[15] = target: Thyrotropin-releasing hormone receptor (Rattus norvegicus) (UniProt Q01717)
[16] = target: Substance-K receptor (Rattus norvegicus, UniProt P16610)
[17] = target: Endothelin-1 receptor (Rattus norvegicus, UniProt P26684)
[18] = target: Amine oxidase [flavin-containing] B (Rattus norvegicus, UniProt P19643)
[19] = target: Androgen receptor (Rattus norvegicus) (UniProt P15207)
[20] = target: Leukotriene B4 receptor 1 (Rattus norvegicus, UniProt Q9R0Q2)
[21] = target: Histamine H2 receptor (Rattus norvegicus, UniProt P25102)
[22] = target: Type-2 angiotensin II receptor (Rattus norvegicus, UniProt P35351)
[23] = target: Gamma-aminobutyric acid receptor subunit alpha-1 (Rattus norvegicus, UniProt P62813)
[24] = target: Estrogen receptor (Rattus norvegicus, UniProt P06211)
[25] = target: Melatonin receptor type 1A (Rattus norvegicus, UniProt P49218)
[26] = target: Nicotinic acetylcholine receptor (Rattus leucopus, UniProt Q62594)
[27] = target: Glutamate decarboxylase 2 (Rattus norvegicus, UniProt Q05683)
[28] = target: Sodium channel protein type 1 subunit alpha (Rattus norvegicus, UniProt P04774)
[29] = target: Muscarinic acetylcholine receptor M1 (Rattus norvegicus, UniProt P08482)
[30] = target: Platelet-activating factor receptor (Rattus norvegicus, UniProt P46002)
[31] = target: Sodium channel protein type 2 subunit alpha (Rattus norvegicus, UniProt P04775)
[32] = target: ATP-sensitive inward rectifier potassium channel 1 (Rattus norvegicus, UniProt P35560)
[33] = target: Glycine receptor subunit alpha-1 (Rattus norvegicus, UniProt P07727)
[34] = target: Cysteinyl leukotriene receptor 1 (Rattus norvegicus, UniProt Q924T8)
[35] = target: Choline O-acetyltransferase (Rattus norvegicus, UniProt P32738)
[36] = target: Hrh3 protein (Rattus norvegicus, UniProt Q5PPG3)
[37] = target: Glutamate receptor ionotropic, kainate 1 (Rattus norvegicus, UniProt P22756)
[38] = target: D(1A) dopamine receptor (Rattus norvegicus, UniProt P18901)
[39] = target: Thromboxane A2 receptor (Rattus norvegicus, UniProt P34978)
[40] = target: Gamma-aminobutyric acid (GABA) B receptor 1 (Rattus norvegicus, UniProt Q6MFX8)

Measured: Ki

ATP-sensitive inward rectifier potassium channel 1, sequence (P35560 whole entry): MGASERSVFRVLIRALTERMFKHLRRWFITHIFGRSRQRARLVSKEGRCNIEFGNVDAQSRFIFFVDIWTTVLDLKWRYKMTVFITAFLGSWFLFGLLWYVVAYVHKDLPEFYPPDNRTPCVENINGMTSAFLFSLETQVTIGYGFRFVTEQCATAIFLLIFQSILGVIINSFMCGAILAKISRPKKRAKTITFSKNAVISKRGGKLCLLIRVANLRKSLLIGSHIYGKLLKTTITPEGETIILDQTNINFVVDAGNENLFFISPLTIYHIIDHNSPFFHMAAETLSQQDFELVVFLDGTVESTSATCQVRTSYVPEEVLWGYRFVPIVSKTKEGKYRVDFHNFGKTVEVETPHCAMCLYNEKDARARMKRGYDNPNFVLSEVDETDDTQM
Beta-2 adrenergic receptor, sequence (P10608 whole entry): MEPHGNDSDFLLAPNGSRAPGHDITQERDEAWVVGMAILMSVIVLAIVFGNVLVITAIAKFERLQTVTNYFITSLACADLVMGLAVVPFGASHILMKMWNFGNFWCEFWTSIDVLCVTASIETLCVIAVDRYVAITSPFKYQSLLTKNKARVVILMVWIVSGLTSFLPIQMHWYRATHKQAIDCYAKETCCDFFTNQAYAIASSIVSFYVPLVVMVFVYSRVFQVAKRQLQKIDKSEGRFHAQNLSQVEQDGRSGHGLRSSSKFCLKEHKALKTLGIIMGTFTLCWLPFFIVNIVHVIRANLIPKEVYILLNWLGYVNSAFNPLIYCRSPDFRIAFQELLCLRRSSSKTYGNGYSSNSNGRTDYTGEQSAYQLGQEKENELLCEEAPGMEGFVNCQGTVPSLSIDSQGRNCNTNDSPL
Substance-K receptor, sequence (P16610 whole entry): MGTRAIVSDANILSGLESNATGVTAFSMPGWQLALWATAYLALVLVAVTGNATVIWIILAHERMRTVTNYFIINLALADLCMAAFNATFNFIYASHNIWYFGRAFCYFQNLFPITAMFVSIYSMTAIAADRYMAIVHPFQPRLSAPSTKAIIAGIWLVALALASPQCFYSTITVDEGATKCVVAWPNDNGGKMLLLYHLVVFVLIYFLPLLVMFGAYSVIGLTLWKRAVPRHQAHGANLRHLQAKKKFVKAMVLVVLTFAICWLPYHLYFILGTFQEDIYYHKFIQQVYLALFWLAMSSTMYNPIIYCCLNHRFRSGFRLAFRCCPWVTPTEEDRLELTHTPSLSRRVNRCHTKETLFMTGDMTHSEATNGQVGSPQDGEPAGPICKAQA
Corticotropin releasing factor receptor (Rattus norvegicus), sequence (P35353 whole entry, looked up): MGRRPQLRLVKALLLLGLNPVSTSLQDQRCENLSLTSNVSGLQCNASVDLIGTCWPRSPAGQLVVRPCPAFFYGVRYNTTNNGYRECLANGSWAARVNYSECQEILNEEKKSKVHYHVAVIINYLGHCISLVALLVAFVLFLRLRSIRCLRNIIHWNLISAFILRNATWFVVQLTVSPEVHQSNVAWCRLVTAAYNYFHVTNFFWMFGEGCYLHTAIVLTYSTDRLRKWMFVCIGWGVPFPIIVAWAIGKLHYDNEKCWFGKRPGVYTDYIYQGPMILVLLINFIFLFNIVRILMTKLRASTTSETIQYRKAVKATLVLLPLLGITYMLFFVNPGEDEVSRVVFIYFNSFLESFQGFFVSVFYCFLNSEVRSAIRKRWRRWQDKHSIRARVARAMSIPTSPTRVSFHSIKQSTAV
Endothelin-1 receptor, sequence (P26684 whole entry): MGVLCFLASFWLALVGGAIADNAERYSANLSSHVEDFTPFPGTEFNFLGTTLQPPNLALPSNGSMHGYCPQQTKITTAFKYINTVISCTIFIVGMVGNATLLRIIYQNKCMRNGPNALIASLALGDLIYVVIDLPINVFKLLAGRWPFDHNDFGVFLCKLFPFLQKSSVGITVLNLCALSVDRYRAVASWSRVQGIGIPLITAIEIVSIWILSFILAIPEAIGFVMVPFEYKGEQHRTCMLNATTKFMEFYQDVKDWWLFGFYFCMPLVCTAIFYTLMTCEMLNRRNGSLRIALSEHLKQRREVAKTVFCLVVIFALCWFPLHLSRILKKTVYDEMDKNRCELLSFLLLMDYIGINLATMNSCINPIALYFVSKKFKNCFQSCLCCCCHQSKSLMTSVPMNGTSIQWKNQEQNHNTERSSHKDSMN
Thromboxane A2 receptor, sequence (P34978 whole entry): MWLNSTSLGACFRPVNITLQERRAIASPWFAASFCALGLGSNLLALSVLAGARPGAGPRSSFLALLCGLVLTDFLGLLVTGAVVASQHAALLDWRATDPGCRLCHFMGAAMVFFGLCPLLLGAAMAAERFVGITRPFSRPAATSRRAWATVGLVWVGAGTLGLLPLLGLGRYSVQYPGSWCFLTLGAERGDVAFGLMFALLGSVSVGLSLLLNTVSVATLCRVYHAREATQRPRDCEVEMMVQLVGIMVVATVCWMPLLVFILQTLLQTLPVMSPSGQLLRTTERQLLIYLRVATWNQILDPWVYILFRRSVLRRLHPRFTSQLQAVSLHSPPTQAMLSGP
Gamma-aminobutyric acid receptor subunit alpha-1, sequence (P62813 whole entry): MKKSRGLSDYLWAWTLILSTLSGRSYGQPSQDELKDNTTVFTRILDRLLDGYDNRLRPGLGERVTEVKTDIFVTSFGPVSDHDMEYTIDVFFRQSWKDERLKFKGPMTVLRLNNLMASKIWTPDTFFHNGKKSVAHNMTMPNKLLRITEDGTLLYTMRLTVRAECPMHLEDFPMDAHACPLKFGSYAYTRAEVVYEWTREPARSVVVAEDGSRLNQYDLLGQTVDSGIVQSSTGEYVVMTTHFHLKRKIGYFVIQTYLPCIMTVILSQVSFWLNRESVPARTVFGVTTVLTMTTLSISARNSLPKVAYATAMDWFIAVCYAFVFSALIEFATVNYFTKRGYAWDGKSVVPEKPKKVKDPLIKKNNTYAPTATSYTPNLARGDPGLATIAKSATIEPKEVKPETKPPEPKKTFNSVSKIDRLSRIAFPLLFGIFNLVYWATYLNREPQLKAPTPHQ
Alpha-2C adrenergic receptor, sequence (P22086 whole entry): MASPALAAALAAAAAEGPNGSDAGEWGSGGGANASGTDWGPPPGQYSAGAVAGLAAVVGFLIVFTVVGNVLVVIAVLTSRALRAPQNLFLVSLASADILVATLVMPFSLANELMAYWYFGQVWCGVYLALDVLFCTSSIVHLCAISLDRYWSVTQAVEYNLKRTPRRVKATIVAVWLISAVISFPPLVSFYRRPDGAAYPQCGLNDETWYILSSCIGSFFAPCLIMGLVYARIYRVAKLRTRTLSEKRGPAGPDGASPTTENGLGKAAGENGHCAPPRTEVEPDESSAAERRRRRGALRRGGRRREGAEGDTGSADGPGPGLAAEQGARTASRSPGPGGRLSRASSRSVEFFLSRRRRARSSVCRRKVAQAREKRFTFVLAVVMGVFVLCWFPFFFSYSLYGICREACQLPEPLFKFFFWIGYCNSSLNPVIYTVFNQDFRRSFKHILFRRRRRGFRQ
Glutamate receptor ionotropic, kainate 1, sequence (P22756 whole entry): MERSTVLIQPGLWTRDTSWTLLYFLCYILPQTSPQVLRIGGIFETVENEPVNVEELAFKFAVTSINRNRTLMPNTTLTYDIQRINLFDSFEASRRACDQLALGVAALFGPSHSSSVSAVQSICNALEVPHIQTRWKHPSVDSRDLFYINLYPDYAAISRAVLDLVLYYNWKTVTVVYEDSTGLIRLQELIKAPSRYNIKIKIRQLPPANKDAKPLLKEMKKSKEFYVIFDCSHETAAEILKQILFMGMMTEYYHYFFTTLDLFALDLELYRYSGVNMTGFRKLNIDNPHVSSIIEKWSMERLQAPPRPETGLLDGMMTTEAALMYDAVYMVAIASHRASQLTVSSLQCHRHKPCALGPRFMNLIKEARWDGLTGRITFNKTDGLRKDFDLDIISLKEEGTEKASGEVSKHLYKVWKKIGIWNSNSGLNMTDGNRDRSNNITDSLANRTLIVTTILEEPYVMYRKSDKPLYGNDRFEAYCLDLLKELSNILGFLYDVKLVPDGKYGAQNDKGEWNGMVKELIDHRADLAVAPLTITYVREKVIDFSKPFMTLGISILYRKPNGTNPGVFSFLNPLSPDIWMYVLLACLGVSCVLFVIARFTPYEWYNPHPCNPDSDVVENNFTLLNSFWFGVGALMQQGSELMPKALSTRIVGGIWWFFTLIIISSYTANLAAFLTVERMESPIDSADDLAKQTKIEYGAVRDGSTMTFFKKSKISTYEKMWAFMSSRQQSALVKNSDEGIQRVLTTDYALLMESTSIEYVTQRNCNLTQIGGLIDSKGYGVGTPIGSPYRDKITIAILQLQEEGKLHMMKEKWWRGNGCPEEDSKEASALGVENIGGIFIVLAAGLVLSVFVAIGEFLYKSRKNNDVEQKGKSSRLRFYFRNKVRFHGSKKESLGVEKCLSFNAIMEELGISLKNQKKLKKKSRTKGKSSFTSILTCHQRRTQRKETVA
Nicotinic acetylcholine receptor, sequence (Q62594 whole entry): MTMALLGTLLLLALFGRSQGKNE
Substance-P receptor, sequence (P14600 whole entry): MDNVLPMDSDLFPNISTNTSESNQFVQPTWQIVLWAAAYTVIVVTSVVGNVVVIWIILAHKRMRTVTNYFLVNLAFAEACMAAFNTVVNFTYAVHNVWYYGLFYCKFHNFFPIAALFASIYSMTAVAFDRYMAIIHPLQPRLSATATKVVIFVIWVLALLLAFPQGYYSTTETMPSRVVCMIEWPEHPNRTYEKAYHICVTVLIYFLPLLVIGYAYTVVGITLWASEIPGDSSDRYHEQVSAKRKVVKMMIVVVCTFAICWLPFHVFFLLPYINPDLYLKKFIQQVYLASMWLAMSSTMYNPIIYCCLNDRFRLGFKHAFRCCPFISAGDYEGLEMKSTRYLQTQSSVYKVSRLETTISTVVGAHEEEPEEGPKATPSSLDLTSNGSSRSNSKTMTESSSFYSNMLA
Melatonin receptor type 1A, sequence (P49218 whole entry): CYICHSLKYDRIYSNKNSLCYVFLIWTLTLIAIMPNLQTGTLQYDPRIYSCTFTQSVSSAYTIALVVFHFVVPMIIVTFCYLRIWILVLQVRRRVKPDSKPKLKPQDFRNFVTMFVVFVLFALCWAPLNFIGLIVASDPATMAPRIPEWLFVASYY

CC(C)(C)c1ccc(NC(=O)N2CCN(c3ncccc3Cl)CC2)cc1 [BCTC]
> 10 µM: all assays above
